Tests used:
Assay type in all cases: cell-based
[1] = tested on: HCT-15; experiment: NCI in vitro DTP human cell line screen, HCT-15; settings: Colon Cancer, 1.00E−5 Molar
Procedure: (§1) Then, a cell toxicity assay of the cancer lines made by National Cancer Institute will be discussed as follows. The cell toxicity assay is performed by choosing ten compounds (existing certification numbers) from the 59 compounds disclosed in the present invention first.

[2] = tested on: HOP-62; experiment: NCI in vitro DTP human cell line screen, HOP-62; settings: Non-Small Cell Lung Cancer, 1.00E−5 Molar
Procedure: as §1

[3] = tested on: SK-OV-3; experiment: NCI in vitro DTP human cell line screen, SK-OV-3; settings: Ovarian Cancer, 1.00E−5 Molar
Procedure: as §1

[4] = tested on: A control cell lines; experiment: MTT assay, A control cell lines (lung cancer cell)
Text: Please refer to Table 1 and FIGS. 4A-4C. According to a MTT assay (Table 1), various cell viabilities of the A control cell lines can be obtained and illustrated in FIG. 4A while the compounds No. 2˜30 are used to treat A control cell lines, wherein A control cell lines are lung cancer cell.

[5] = tested on: COLO 205; experiment: NCI in vitro DTP human cell line screen, COLO 205; settings: Colon Cancer, 1.00E−5 Molar
Procedure: as §1

[6] = tested on: MOLT-4; experiment: NCI in vitro DTP human cell line screen, MOLT-4; settings: Leukemia, 1.00E−5 Molar
Procedure: as §1

[7] = tested on: MDA-MB-231/ATCC; experiment: NCI in vitro DTP human cell line screen, MDA-MB-231/ATCC; settings: Breast Cancer, 1.00E−5 Molar
Procedure: as §1

[8] = tested on: T-47D; experiment: NCI in vitro DTP human cell line screen, T-47D; settings: Breast Cancer, 1.00E−5 Molar
Procedure: as §1

[9] = tested on: MDA-MB-468; experiment: NCI in vitro DTP human cell line screen, MDA-MB-468; settings: Breast Cancer, 1.00E−5 Molar
Procedure: as §1

[10] = tested on: SR; experiment: NCI in vitro DTP human cell line screen, SR; settings: Leukemia, 1.00E−5 Molar
Procedure: as §1

[11] = tested on: NCI-H23; experiment: NCI in vitro DTP human cell line screen, NCI-H23; settings: Non-Small Cell Lung Cancer, 1.00E−5 Molar
Procedure: as §1

[12] = tested on: NCI-H322M; experiment: NCI in vitro DTP human cell line screen, NCI-H322M; settings: Non-Small Cell Lung Cancer, 1.00E−5 Molar
Procedure: as §1

[13] = tested on: NCI-H460; experiment: NCI in vitro DTP human cell line screen, NCI-H460; settings: Non-Small Cell Lung Cancer, 1.00E−5 Molar
Procedure: as §1

[14] = tested on: IGROV1; experiment: NCI in vitro DTP human cell line screen, IGROV1; settings: Ovarian Cancer, 1.00E−5 Molar
Procedure: as §1

[15] = tested on: EKVX; experiment: NCI in vitro DTP human cell line screen, EKVX; settings: Non-Small Cell Lung Cancer, 1.00E−5 Molar
Procedure: as §1

[16] = tested on: SF-295; experiment: NCI in vitro DTP human cell line screen, SF-295; settings: CNS Cancer, 1.00E−5 Molar
Procedure: as §1

[17] = tested on: ACHN; experiment: NCI in vitro DTP human cell line screen, ACHN; settings: Renal Cancer, 1.00E−5 Molar
Procedure: as §1

[18] = tested on: OVCAR-8; experiment: NCI in vitro DTP human cell line screen, OVCAR-8; settings: Ovarian Cancer, 1.00E−5 Molar
Procedure: as §1

[19] = tested on: SK-MEL-5; experiment: NCI in vitro DTP human cell line screen, SK-MEL-5; settings: Melanoma, 1.00E−5 Molar
Procedure: as §1

[20] = tested on: OVCAR-3; experiment: NCI in vitro DTP human cell line screen, OVCAR-3; settings: Ovarian Cancer, 1.00E−5 Molar
Procedure: as §1

[21] = tested on: SF-268; experiment: NCI in vitro DTP human cell line screen, SF-268; settings: CNS Cancer, 1.00E−5 Molar
Procedure: as §1

[22] = tested on: CCRF-CEM; experiment: NCI in vitro DTP human cell line screen, CCRF-CEM; settings: Leukemia, 1.00E−5 Molar
Procedure: as §1

[23] = tested on: A3 cell lines; experiment: MTT assay, A3 cell lines (lung cancer stem cell)
Text: Please to FIG. 4B, various cell viabilities of the A3 cell lines can be obtained through the MTT assay and illustrated in FIG. 4B while the compounds No. 1˜30 are used to treat A3 cell lines, wherein A3 cell lines are lung cancer stem cell.

[24] = tested on: UACC-257; experiment: NCI in vitro DTP human cell line screen, UACC-257; settings: Melanoma, 1.00E−5 Molar
Procedure: as §1

[25] = tested on: M14; experiment: NCI in vitro DTP human cell line screen, M14; settings: Melanoma, 1.00E−5 Molar
Procedure: as §1

[26] = tested on: MCF7; experiment: NCI in vitro DTP human cell line screen, MCF7; settings: Breast Cancer, 1.00E−5 Molar
Procedure: as §1

[27] = tested on: HCT-116; experiment: NCI in vitro DTP human cell line screen, HCT-116; settings: Colon Cancer, 1.00E−5 Molar
Procedure: as §1

[28] = tested on: HT29; experiment: NCI in vitro DTP human cell line screen, HT29; settings: Colon Cancer, 1.00E−5 Molar
Procedure: as §1

[29] = tested on: PC-3; experiment: NCI in vitro DTP human cell line screen, PC-3; settings: Prostate Cancer, 1.00E−5 Molar
Procedure: as §1

[30] = tested on: HL-60(TB); experiment: NCI in vitro DTP human cell line screen, HL-60(TB); settings: Leukemia, 1.00E−5 Molar
Procedure: as §1

[31] = tested on: LOX IMVI; experiment: NCI in vitro DTP human cell line screen, LOX IMVI; settings: Melanoma, 1.00E−5 Molar
Procedure: as §1

[32] = tested on: 786-0; experiment: NCI in vitro DTP human cell line screen, 786-0; settings: Renal Cancer, 1.00E−5 Molar
Procedure: as §1

[33] = tested on: NCI-H522; experiment: NCI in vitro DTP human cell line screen, NCI-H522; settings: Non-Small Cell Lung Cancer, 1.00E−5 Molar
Procedure: as §1

[34] = tested on: HS 578-T; experiment: NCI in vitro DTP human cell line screen, HS 578-T; settings: Breast Cancer, 1.00E−5 Molar
Procedure: as §1

[35] = tested on: RPMI-8226; experiment: NCI in vitro DTP human cell line screen, RPMI-8226; settings: Leukemia, 1.00E−5 Molar
Procedure: as §1

[36] = tested on: NCI-H226; experiment: NCI in vitro DTP human cell line screen, NCI-H226; settings: Non-Small Cell Lung Cancer, 1.00E−5 Molar
Procedure: as §1

[37] = tested on: HOP-92; experiment: NCI in vitro DTP human cell line screen, HOP-92; settings: Non-Small Cell Lung Cancer, 1.00E−5 Molar
Procedure: as §1

[38] = tested on: OVCAR-5; experiment: NCI in vitro DTP human cell line screen, OVCAR-5; settings: Ovarian Cancer, 1.00E−5 Molar
Procedure: as §1

[39] = tested on: SNB-75; experiment: NCI in vitro DTP human cell line screen, SNB-75; settings: CNS Cancer, 1.00E−5 Molar
Procedure: as §1

[40] = tested on: MDA-MB-435; experiment: NCI in vitro DTP human cell line screen, MDA-MB-435; settings: Melanoma, 1.00E−5 Molar
Procedure: as §1

[41] = tested on: U251; experiment: NCI in vitro DTP human cell line screen, U251; settings: CNS Cancer, 1.00E−5 Molar
Procedure: as §1

[42] = tested on: HCC-2998; experiment: NCI in vitro DTP human cell line screen, HCC-2998; settings: Colon Cancer, 1.00E−5 Molar
Procedure: as §1

[43] = tested on: SK-MEL-28; experiment: NCI in vitro DTP human cell line screen, SK-MEL-28; settings: Melanoma, 1.00E−5 Molar
Procedure: as §1

[44] = tested on: RXF 393; experiment: NCI in vitro DTP human cell line screen, RXF 393; settings: Renal Cancer, 1.00E−5 Molar
Procedure: as §1

[45] = tested on: UO-31; experiment: NCI in vitro DTP human cell line screen, UO-31; settings: Renal Cancer, 1.00E−5 Molar
Procedure: as §1

[46] = tested on: K562; experiment: NCI in vitro DTP human cell line screen, K562; settings: Leukemia, 1.00E−5 Molar
Procedure: as §1

[47] = tested on: MALME-3M; experiment: NCI in vitro DTP human cell line screen, MALME-3M; settings: Melanoma, 1.00E−5 Molar
Procedure: as §1

O=c1c2ccccc2sc2c(Cl)c(SCc3ccc(Cl)cc3)ccc12 [No. 26, 4-Chloro-3-(4-chlorobenzylthio)-9H-thioxanthen-9-one]
Growth Percent [1]: 104.80% | Growth Percent [2]: 89.02% | Growth Percent [3]: 97.10% | cell viabilities of A control cell lines (MTT assay) [4]: 96.8 ± 4.29% | Growth Percent [5]: 108.87% | Growth Percent [6]: 96.00% | Growth Percent [7]: 95.00% | Growth Percent [8]: 87.73% | Growth Percent [9]: 96.96% | Growth Percent [10]: 93.51% | Growth Percent [11]: 96.57% | Growth Percent [12]: 101.60% | Growth Percent [13]: 106.85% | Growth Percent [14]: 104.47% | Growth Percent [15]: 110.82% | Growth Percent [16]: 112.42% | Growth Percent [17]: 91.82% | Growth Percent [18]: 86.47% | Growth Percent [19]: 101.76% | Growth Percent [20]: 130.11% | Growth Percent [21]: 101.57% | Growth Percent [22]: 92.28% | cell viabilities of A3 cell lines (MTT assay) [23]: 62.4% | Growth Percent [24]: 92.94% | Growth Percent [25]: 101.01% | Growth Percent [26]: 94.48% | Growth Percent [27]: 96.31% | Growth Percent [28]: 103.09% | Growth Percent [29]: 93.28% | Growth Percent [30]: 105.29% | Growth Percent [31]: 97.16% | Growth Percent [32]: 106.48% | Growth Percent [33]: 81.19% | Growth Percent [34]: 108.61% | Growth Percent [35]: 91.09% | Growth Percent [36]: 94.77% | Growth Percent [37]: 69.89% | Growth Percent [38]: 102.23% | Growth Percent [39]: 96.90% | Growth Percent [40]: 108.59% | Growth Percent [41]: 86.21% | Growth Percent [42]: 107.66% | Growth Percent [43]: 114.10% | Growth Percent [44]: 109.38% | Growth Percent [45]: 89.66% | Growth Percent [46]: 113.64% | Growth Percent [47]: 105.22%

Source: patent publication US8410161B2, “Thioxanthone ring system derivatives” (National Defense Medical Center, priority 2010, dated 2013)
